# Columns and labels:
# RAW264.7 [1] = test: Antiinflammatory activity in mouse RAW 264.7 cells assessed as inhibition of LPS-induced NO production at 10 uM measured after 24 hrs by Griess assay relative to control; assay type: functional; set-up: scale not given: the % may be the effect or the level left
# RAW264.7 [2] = test: Antiinflammatory activity in mouse RAW 264.7 cells assessed as inhibition of LPS-induced NO production measured after 24 hrs by Griess assay; assay type: functional, cell-based; details: RAW264.7, 24 h
IC50 (RAW264.7 [2]) [µM],SMILES,Activity (RAW264.7 [1]) [%]
> 10,CO[C@H]1CC(=O)O[C@@H]1[C@@]1(C)CC(=O)c2c(cc(C)c(-c3c(C)cc4c(c3O)C(=O)C[C@@](C)([C@H]3OC(=O)C[C@@H]3OC)O4)c2O)O1,16.2
5.2,CO[C@H]1CC(=O)O[C@@H]1[C@@]1(C)CC(=O)c2c(cc(C)c(-c3c(C)cc4c(c3O)C(=O)C[C@](C)([C@H]3OC(=O)C[C@@H]3OC)O4)c2O)O1,72
> 10,CO[C@H]1CC(O)=C2C(=O)c3c(cc(C)c(-c4c(C)cc5c(c4O)C(=O)C4=C(O)C[C@H](OC)[C@H](O)[C@]4(C)O5)c3O)O[C@@]2(C)[C@H]1O,52.7
> 10,CO[C@H]1CC(=O)O[C@@H]1[C@@]1(C)CC(=O)c2c(cc(C)c(-c3c(C)cc(O)c4c3O[C@](C)([C@H]3OC(=O)C[C@@H]3OC)CC4=O)c2O)O1,7.6
> 10,CO[C@H]1CC(=O)O[C@@H]1[C@]1(C)CC(=O)c2c(O)cc(C)c(-c3c(C)cc4c(c3O)C(=O)C3=C(O)C[C@H](OC)[C@H](O)[C@]3(C)O4)c2O1,52.7
5.1,CO[C@H]1CC(=O)O[C@@H]1[C@@]1(C)CC(=O)c2c(cc(C)c(-c3c(C)cc4c(c3O)C(=O)C3=CC[C@H](OC)[C@H](O)[C@]3(C)O4)c2O)O1,84.4
> 10,CO[C@H]1CC(=O)O[C@@H]1[C@]1(C)CC(=O)c2c(cc(C)c(-c3c(C)cc4c(c3O)C(=O)C[C@@](C)([C@H]3OC(=O)C[C@@H]3OC)O4)c2O)O1,5.9
> 10,CO[C@H]1CC(=O)O[C@@H]1[C@]1(C)CC(=O)c2c(cc(C)c(-c3c(C)cc4c(c3O)C(=O)C3=C(O)C[C@H](OC)[C@H](O)[C@]3(C)O4)c2O)O1,36.6
2.2,COc1cc(/C=C/C(=O)CC(=O)/C=C/c2ccc(O)c(OC)c2)ccc1O [CURCUMIN],79.2
> 10,CO[C@H]1CC(=O)O[C@@H]1[C@@]1(C)CC(=O)c2c(cc(C)c(-c3c(C)cc4c(c3O)C(=O)C3=C(O)C[C@H](OC)[C@H](O)[C@]3(C)O4)c2O)O1,13.2
> 10,CO[C@H]1CC(=O)O[C@@H]1[C@]1(C)CC(=O)c2c(O)cc(C)c(-c3c(C)cc4c(c3O)C(=O)C3=CC[C@H](OC)[C@H](O)[C@]3(C)O4)c2O1,33.2
1.3,CO[C@H]1CC=C2C(=O)c3c(cc(C)c(-c4c(C)cc5c(c4O)C(=O)C4=C(O)C[C@H](OC)[C@H](O)[C@]4(C)O5)c3O)O[C@@]2(C)[C@H]1O,89.8

# Reference: ChEMBL document CHEMBL5046260, “Anti-inflammatory Dimeric Tetrahydroxanthones from an Endophytic Muyocopron laterale” (J Nat Prod, 2022)
